# Values of other authors in PMC7269146, “Jingzhaotoxin-X, a gating modifier of Kv4.2 and Kv4.3 potassium channels purified from the venom of the Chinese tarantula Chilobrachys jingzhao” (The Journal of Venomous Animals and Toxins Including …, 2020).
# Entries after “also recorded” stand apart in the source; their conditions may differ. Like-named read-outs stand apart in the source and are kept apart here.
# Tests used:
# [1] = test system: Nav1.5 channels; settings: cited from earlier work
# From the text: (§1) Table 1. Characterization of the main peptides from C. jingzhao venom | column: Main pharmacological activity
# [2] = test system: rat cardiac Nav channels; settings: ref [10]; cited from earlier work
# From the text: as §1
# [3] = test system: Kv2 channels; settings: ref [40], [41]; cited from earlier work
# [4] = test system: Kv4 channels; settings: cited from earlier work
# From the text: (§2) Table 1. Characterization of the main peptides from C. jingzhao venom | column: Main pharmacological activity || The tarantula Chilobrachys jingzhao is one of the largest venomous spiders in the south of China. Peptide toxins purified from spider venom provide crucial approaches to investigating Kv4 channels. […] Jingzhaotoxin-XI ...
# [5] = test system: Nav channels; settings: cited from earlier work
# From the text: as §1
# [6] = test system: Kv4.3 or Kv4.2; settings: ref [14], [19]-[21]; cited from earlier work
# From the text: The tarantula Chilobrachys jingzhao is one of the largest venomous spiders in the south of China. Peptide toxins purified from spider venom provide crucial approaches to investigating Kv4 channels. […] Jingzhaotoxin-XI ...
# [7] = test system: Kv2.1 channels; settings: cited from earlier work
# From the text: as §2
# [8] = test system: Kv4.1 channels; settings: ref [17]; cited from earlier work
# From the text: as §2
# [9] = test system: Kv channel; settings: ref [18]; cited from earlier work
# From the text: as §1
# [10] = test system: calcium channel; settings: ref [35]; cited from earlier work
# From the text: A total of 6 cysteine residues were highly conserved among each spider toxin at specific locations.
substance,measurement,setting,value
Jingzhaotoxin-II,"Main pharmacological activity, Nav1.5",[1]; ref [10],Inhibits inactivation of both rat cardiac Nav channels and Nav1.5 channels
same,"Main pharmacological activity, rat cardiac Nav channels",[2],Inhibits inactivation of both rat cardiac Nav channels and Nav1.5 channels
"HaTx1: gating-modifying toxin (ECRYLFGGCKTTSDCCKHLGCKFRDKYCAWDFTFS; UniProt P56852 50-84, looked up)",suppression of Kv2 channels,[3],suppressing Kv2 channels
Jingzhaotoxin-V,"Main pharmacological activity, Kv4 channels",[4],Inhibits both Nav and Kv4 channels
same,"Main pharmacological activity, Nav channels",[5],Inhibits both Nav and Kv4 channels
same,inhibition of Kv4.3 or Kv4.2,[6],"inhibit either Kv4.3 or Kv4.2, or both of these channels"
Jingzhaotoxin-I,"Main pharmacological activity, Kv2.1",[7]; ref [7]-[9],Inhibits Nav1.5 channels inactivation and Kv2.1 channels
same,"Main pharmacological activity, Nav1.5",[1]; ref [7]-[9],Inhibits Nav1.5 channels inactivation and Kv2.1 channels
"SNX-482 (GVDKAGCRYMFGGCSVNDDCCPRLGCHSLFSYCAWDLTFSD; UniProt P56854 1-41, looked up)",inhibition of Kv4.3 or Kv4.2,[6],"inhibit either Kv4.3 or Kv4.2, or both of these channels"
Jingzhaotoxin-XII,"Main pharmacological activity, Kv4.1",[8],specific Kv4.1 channel-gating modifier; also recorded: Inhibits Kv4.1 channels
Jingzhaotoxin-IV,"Main pharmacological activity, Nav channels",[5]; ref [13],Modifies the activation and inactivation of Nav channels
Jingzhaotoxin-III,"Main pharmacological activity, Kv2.1","[7]; ref [11], [12]",Inhibits Nav1.5 and Kv2.1 channels
same,"Main pharmacological activity, Nav1.5","[1]; ref [11], [12]",Inhibits Nav1.5 and Kv2.1 channels
Jingzhaotoxin-XIII,"Main pharmacological activity, Kv channel",[9],Modifies Kv channel gating
ω-grammotoxin SIA,activity on calcium channel,[10],blocker of calcium channel
Jingzhaotoxin-XI,"Main pharmacological activity, Kv2.1","[7]; ref [15], [16]",Inhibits Nav1.5 inactivation and Kv2.1 channels
same,"Main pharmacological activity, Nav1.5","[1]; ref [15], [16]",Inhibits Nav1.5 inactivation and Kv2.1 channels
